Laboratory results published in ChEMBL document CHEMBL5352406 (Eur J Med Chem, 2022).

Tests used:
[1] = Toxicity in BALB/cA-nu mouse xenografted with human HCT116 cells assessed as body weight changes at 10 mg/kg, intragastric administration for 21 days; assay type: organism-based, HCT-116; details: in vivo, po, 504 h, time 21 day
A549 = assay: Antiproliferative activity against human A549 cells assessed as cell growth inhibition after 72 hrs by MTT assay; assay type: functional
HCT-116 [2] = assay: Cell cycle arrest in human HCT-116 cells assessed as accumulation of cells at […] phase at 10 nM measured after 48 hrs by flow cytometry (reference value: 6.39%); assay type: functional
MCF7 = assay: Antiproliferative activity against human MCF7 cells assessed as cell growth inhibition after 72 hrs by MTT assay; assay type: functional
HCT-116 [3] = assay: Induction of apoptosis in human HCT-116 cells assessed as early apoptotic cells at 10 nM measured after 48 hrs by Annexin V-FITC/PI assay (reference value: 3.16%); assay type: functional
HCT-116 [4] = assay: Cell cycle arrest in human HCT-116 cells assessed as accumulation of cells at S phase at 20 nM measured after 48 hrs by flow cytometry (reference value: 31.43%); assay type: functional
[5] = Tmax in Sprague-Dawley rat at 20 mg/kg, po; assay type: ADME, organism-based; details: in vivo
HCT-116 [6] = assay: Induction of apoptosis in human HCT-116 cells assessed as viable cells at 10 nM measured after 48 hrs by Annexin V-FITC/PI assay (reference value: 88.5%); assay type: functional; details: read-out: Activity
[7] = biological target: CDK7/Cyclin H/MNAT1 (Homo sapiens) (UniProt P51946+P50613+P51948); assay: Inhibition of CDK7/Cyclin H/MAT1 (unknown origin) at 500 nM by ADP-Glo kinase assay relative to control; assay type: protein-complex assay
HCT-116 [8] = assay: Inhibition of colony formation in human HCT-116 cells treated for 24 hrs followed by replaced with fresh culture media for 10 days by Colony formation assay; assay type: functional, cell-based; details: dose 2-18 nM
[9] = Acute toxicity in Kunming mouse assessed as survival at 159 mg/kg, po measured for 2 weeks; assay type: organism-based; details: in vivo
HCT-116 [10] = assay: Cell cycle arrest in human HCT-116 cells assessed as accumulation of cells at S phase at 10 nM measured after 48 hrs by flow cytometry (reference value: 31.43%); assay type: functional
[11] = Cmax in Sprague-Dawley rat at 2 mg/kg, iv; assay type: ADME, organism-based; design: dose 2 mg/kg, route iv; details: in vivo
[12] = Acute toxicity in Kunming mouse assessed as body weight change at 20 to 105 mg/kg, po measured for 2 weeks; assay type: organism-based; details: in vivo, 336 h, dose 20-105 mg/kg
CDK9/cyclin T1 = CDK9/cyclin T1 (Homo sapiens, UniProt P50750)
Description: Inhibition of CDK9/CyclinT1 (unknown origin) by ADP-Glo kinase assay

[13] = biological target: CDK4/Cyclin D3 (Homo sapiens) (UniProt P11802+P30281); assay: Inhibition of CDK4/Cyclin D3 (unknown origin) at 500 nM by ADP-Glo kinase assay relative to control; assay type: protein-complex assay
HCT-116 [14] = assay: Induction of apoptosis in human HCT-116 cells assessed as late apoptotic cells at 10 nM measured after 48 hrs by Annexin V-FITC/PI assay (reference value: 6.06%); assay type: functional
[15] = biological target: CDK9/cyclin T1 (Homo sapiens) (UniProt O60563+P50750); assay: Inhibition of CDK9/CyclinT1 (unknown origin) at 500 nM by ADP-Glo kinase assay relative to control; assay type: protein-complex assay
[16] = biological target: CDK6/cyclin D1 (Homo sapiens) (UniProt P24385+Q00534); assay: Inhibition of CDK6/Cyclin D1 (unknown origin) at 500 nM by ADP-Glo kinase assay relative to control; assay type: protein-complex assay
[17] = AUC (0 to t) in Sprague-Dawley rat at 20 mg/kg, po; assay type: ADME, organism-based; design: dose 20 mg/kg, route po; details: in vivo
HCT-116 [18] = assay: Induction of apoptosis in human HCT-116 cells assessed as viable cells at 20 nM measured after 48 hrs by Annexin V-FITC/PI assay (reference value: 88.5%); assay type: functional; details: read-out: Activity
[19] = biological target: CDK6/cyclin D3 (Homo sapiens) (UniProt P30281+Q00534); assay: Inhibition of CDK6/Cyclin D3 (unknown origin) at 500 nM by ADP-Glo kinase assay relative to control; assay type: protein-complex assay
HCT-116 [20] = assay: Antitumor activity against human HCT-116 cells xenografted in BALB/cA-nu mouse tumor model assessed as tumor volume growth inhibition at 10 mg/kg, intragastric administration for 21 days relative to control; assay type: functional; details: HCT-116, 504 h, route ig, time 21 day, read-out: GI
[21] = biological target: T1, Cyclin-dependent kinase 5/CDK5 activator 1 (Homo sapiens) (UniProt Q00535+Q15078); assay: Inhibition of CDK5/p25 NCK (unknown origin) at 500 nM by ADP-Glo kinase assay relative to control; assay type: protein-complex assay
HCT-116 [22] = assay: Induction of apoptosis in human HCT-116 cells assessed as necrotic cells at 10 nM measured after 48 hrs by Annexin V-FITC/PI assay (reference value: 2.31%); assay type: functional
[23] = biological target: Cyclin-dependent kinase 1/cyclin B1 (Homo sapiens) (UniProt P06493+P14635); details: dose 500.0 nM
Description: Inhibition of CDK1/Cyclin B1 (unknown origin) at 500 nM by ADP-Glo kinase assay relative to control

Cholinesterase = Cholinesterase (Equus caballus, UniProt P81908); assay: Inhibition of equine serum BuChE using […] as substrate for 20 mins by Ellman's method
[24] = Tmax in Sprague-Dawley rat at 2 mg/kg, iv; assay type: ADME, organism-based; details: in vivo
[25] = biological target: CDK1/Cyclin E (Homo sapiens) (UniProt P06493+P24864); details: dose 500.0 nM
Description: Inhibition of CDK1/Cyclin E1 (unknown origin) at 500 nM by ADP-Glo kinase assay relative to control

[26] = biological target: CDK3/Cyclin E (Homo sapiens) (UniProt P24864+Q00526); assay: Inhibition of CDK3/Cyclin E1 (unknown origin) at 500 nM by ADP-Glo kinase assay relative to control; assay type: protein-complex assay
[27] = Acute toxicity in po dosed Kunming mouse assessed as survival measured for 2 weeks; assay type: organism-based; details: in vivo
HCT-116 [28] = assay: Induction of apoptosis in human HCT-116 cells assessed as early apoptotic cells at 20 nM measured after 48 hrs by Annexin V-FITC/PI assay (reference value: 3.16%); assay type: functional
[29] = Toxicity in BALB/cA-nu mouse xenografted with human HCT116 cells assessed as liver injury by measuring ALT level at 10 mg/kg, intragastric administration for 21 days; assay type: organism-based, HCT-116; details: in vivo, po, 504 h, time 21 day
[30] = Cmax in Sprague-Dawley rat at 20 mg/kg, po; assay type: ADME, organism-based; design: dose 20 mg/kg, route po; details: in vivo
[31] = biological target: T1, Cyclin-dependent kinase 5/CDK5 activator 1 (Homo sapiens); assay: Inhibition of CDK5/p35 NCK (unknown origin) at 500 nM by ADP-Glo kinase assay relative to control; assay type: protein-complex assay
HCT-116 [32] = assay: Cell cycle arrest in human HCT-116 cells assessed as accumulation of cells at G0-G1 phase at 20 nM measured after 48 hrs by flow cytometry (reference value: 62.18%); assay type: functional
[33] = Toxicity in BALB/cA-nu mouse xenografted with human HCT116 cells assessed as behavioral changes at 10 mg/kg, intragastric administration for 21 days; assay type: organism-based, HCT-116; details: in vivo, po, 504 h, time 21 day
[34] = Oral bioavailability in Sprague-Dawley rat at 20 mg/kg; assay type: ADME, organism-based; details: in vivo
HCT-116 [35] = assay: Inhibition of cell migration in human HCT-116 cells after 48 hrs by Wound healing scratch assay; assay type: functional, cell-based; details: dose 2-18 nM
[36] = Acute toxicity in Kunming mouse assessed as behavior change at 20 to 105 mg/kg, po measured for 2 weeks; assay type: organism-based; details: in vivo, 336 h, dose 20-105 mg/kg

T1 sequence (Q00535 whole entry): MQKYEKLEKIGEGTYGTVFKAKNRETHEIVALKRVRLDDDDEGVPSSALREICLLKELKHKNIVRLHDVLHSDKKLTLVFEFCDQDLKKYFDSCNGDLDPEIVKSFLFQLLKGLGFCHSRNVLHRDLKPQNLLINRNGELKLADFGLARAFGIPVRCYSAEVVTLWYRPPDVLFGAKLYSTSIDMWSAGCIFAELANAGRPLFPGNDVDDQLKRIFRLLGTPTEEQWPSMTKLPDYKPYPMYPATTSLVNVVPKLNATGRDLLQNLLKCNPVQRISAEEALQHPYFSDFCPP
T1 sequence (Q15078 99-307 partner limits assumed): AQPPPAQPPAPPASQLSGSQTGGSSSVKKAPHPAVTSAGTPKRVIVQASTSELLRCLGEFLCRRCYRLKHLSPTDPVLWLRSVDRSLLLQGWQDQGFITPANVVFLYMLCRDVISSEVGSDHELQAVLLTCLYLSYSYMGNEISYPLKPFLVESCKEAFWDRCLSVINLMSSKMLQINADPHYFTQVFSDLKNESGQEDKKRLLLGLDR
CDK1/Cyclin E (Homo sapiens), sequence (P06493 whole entry, looked up): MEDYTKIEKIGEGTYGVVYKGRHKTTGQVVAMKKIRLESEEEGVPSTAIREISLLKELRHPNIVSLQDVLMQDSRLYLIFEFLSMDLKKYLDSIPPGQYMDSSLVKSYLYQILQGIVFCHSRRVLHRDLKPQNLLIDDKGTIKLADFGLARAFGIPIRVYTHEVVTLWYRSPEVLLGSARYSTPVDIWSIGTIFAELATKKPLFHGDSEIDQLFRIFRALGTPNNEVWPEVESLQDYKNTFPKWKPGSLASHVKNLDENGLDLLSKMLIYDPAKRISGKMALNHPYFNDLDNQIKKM
CDK1/Cyclin E (Homo sapiens), sequence (P24864 whole entry, looked up): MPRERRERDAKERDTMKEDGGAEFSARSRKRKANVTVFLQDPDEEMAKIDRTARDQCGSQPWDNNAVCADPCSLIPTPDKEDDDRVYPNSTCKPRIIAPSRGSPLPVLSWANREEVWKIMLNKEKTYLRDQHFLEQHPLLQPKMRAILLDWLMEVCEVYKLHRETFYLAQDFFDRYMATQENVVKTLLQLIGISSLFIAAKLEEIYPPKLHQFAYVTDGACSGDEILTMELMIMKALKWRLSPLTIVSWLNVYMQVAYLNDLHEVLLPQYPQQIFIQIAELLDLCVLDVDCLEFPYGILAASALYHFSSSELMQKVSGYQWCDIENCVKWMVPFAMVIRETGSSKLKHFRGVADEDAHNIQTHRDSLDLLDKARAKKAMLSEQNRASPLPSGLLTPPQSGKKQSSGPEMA
Cyclin-dependent kinase 1/cyclin B1 (Homo sapiens), sequence (P06493 whole entry, looked up): as the sequence (P06493 whole entry, looked up) above
Cyclin-dependent kinase 1/cyclin B1 (Homo sapiens), sequence (P14635 whole entry, looked up): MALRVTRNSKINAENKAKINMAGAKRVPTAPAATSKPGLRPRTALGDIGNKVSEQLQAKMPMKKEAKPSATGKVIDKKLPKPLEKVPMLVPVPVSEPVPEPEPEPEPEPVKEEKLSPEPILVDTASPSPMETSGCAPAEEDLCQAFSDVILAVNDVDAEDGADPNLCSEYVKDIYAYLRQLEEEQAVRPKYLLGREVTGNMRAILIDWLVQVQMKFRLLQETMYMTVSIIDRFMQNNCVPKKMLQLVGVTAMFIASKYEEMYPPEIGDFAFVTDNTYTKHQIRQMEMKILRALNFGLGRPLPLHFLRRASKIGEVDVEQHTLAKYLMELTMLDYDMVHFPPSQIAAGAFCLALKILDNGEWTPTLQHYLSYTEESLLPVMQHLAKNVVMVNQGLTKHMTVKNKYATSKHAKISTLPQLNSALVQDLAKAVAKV
Cholinesterase, sequence (P81908 whole entry): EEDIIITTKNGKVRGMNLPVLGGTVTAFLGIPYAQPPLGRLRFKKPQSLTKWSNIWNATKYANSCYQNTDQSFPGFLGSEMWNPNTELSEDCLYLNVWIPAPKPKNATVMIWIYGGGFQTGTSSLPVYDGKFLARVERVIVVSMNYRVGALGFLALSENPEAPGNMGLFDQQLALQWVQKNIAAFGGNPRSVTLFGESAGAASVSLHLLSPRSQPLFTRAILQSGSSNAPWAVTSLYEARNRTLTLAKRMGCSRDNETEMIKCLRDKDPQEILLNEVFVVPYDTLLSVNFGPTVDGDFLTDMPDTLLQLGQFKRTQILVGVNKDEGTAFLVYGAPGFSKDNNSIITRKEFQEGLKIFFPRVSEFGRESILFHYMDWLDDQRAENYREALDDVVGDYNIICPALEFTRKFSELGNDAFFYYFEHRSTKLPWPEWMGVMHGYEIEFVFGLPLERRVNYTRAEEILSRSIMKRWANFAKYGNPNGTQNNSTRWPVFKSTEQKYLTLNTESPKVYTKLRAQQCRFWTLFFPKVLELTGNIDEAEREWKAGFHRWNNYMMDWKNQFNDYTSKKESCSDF
CDK9/cyclin T1, sequence (O60563 whole entry): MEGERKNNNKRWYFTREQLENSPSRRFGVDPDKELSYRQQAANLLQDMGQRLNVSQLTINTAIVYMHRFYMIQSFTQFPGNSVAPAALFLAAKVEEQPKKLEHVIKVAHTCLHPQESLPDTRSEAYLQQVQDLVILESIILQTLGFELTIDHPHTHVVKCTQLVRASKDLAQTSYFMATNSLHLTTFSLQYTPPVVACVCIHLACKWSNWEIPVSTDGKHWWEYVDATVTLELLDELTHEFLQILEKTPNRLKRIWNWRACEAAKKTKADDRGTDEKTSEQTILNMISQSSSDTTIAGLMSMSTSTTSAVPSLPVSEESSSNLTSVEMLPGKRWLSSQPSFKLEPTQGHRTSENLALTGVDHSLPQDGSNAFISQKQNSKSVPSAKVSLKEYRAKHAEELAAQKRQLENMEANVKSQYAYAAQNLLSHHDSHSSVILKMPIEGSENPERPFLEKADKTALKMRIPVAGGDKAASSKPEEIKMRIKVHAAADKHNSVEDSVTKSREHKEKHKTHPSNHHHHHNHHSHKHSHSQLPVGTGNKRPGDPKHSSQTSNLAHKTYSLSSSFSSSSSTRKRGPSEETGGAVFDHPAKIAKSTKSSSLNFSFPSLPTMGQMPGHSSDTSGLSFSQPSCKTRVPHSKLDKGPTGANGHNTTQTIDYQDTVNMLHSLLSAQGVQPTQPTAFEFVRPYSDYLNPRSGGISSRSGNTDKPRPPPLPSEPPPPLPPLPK
CDK9/cyclin T1, sequence (P50750 whole entry): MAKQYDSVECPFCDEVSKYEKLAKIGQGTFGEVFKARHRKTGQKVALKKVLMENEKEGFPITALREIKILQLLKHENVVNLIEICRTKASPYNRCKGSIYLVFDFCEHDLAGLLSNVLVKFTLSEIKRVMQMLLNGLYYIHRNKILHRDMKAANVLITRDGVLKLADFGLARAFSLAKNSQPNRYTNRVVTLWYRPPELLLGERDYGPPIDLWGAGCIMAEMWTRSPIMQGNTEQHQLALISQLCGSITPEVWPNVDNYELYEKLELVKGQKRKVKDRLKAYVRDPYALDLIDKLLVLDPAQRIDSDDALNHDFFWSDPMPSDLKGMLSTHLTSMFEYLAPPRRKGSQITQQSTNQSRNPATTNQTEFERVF
CDK3/Cyclin E (Homo sapiens), sequence (P24864 whole entry, looked up): as the sequence (P24864 whole entry, looked up) above
CDK3/Cyclin E (Homo sapiens), sequence (Q00526 whole entry, looked up): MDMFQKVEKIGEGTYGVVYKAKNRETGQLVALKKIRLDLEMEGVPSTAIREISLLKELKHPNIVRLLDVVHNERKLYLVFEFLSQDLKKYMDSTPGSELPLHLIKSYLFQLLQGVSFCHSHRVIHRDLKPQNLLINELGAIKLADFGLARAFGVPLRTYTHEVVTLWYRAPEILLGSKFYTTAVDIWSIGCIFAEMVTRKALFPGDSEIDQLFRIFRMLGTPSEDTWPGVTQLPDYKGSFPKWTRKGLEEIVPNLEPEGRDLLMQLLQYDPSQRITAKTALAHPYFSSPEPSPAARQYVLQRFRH

Question: Which results are given for `Cl.N[C@H]1CCN(c2c3c(nc4ccc(-c5ccnc(NC(=O)C6CC6)n5)cc24)CCCCC3)C1`?
Answer: Activity [1]: Non-Toxic; GI50 (A549): 9 nM; Activity (HCT-116 [2]): 10.6%; GI50 (MCF7): 6 nM; Activity (HCT-116 [3]): 16.3%; Activity (HCT-116 [4]): 49.38%; Tmax [5]: 60 min; viability at 0.01 µM (HCT-116 [6]): 74%; inhibition [7]: 60.4%; inhibition (HCT-116 [8]): Dose-Dependent Effect; survival at 336 h [9]: 0%; Activity (HCT-116 [10]): 42.75%; Cmax [11]: 206 ng/mL; Activity [12]: Non-Toxic; IC50 (CDK9/cyclin T1): 2.41 nM; inhibition [13]: 29.4%; Activity (HCT-116 [14]): ~7.47%; inhibition [15]: 99.8%; inhibition [16]: 22.1%; AUC(0-t) [17]: 302 ng·h/mL; viability at 0.02 µM (HCT-116 [18]): 52.5%; inhibition [19]: 16.6%; inhibition in vivo at 10 mg/kg (HCT-116 [20]): 47.7%; inhibition [21]: 64.5%; Activity (HCT-116 [22]): 1.48%; inhibition [23]: 77.3%; IC50 (Cholinesterase): 2770 nM; Tmax [24]: 4.98 min; inhibition [25]: 48.6%; inhibition [26]: 65.5%; LD50 at 336 h [27]: 104 mg/kg; Activity (HCT-116 [28]): 32.6%; Activity [29]: Non-Toxic; Cmax [30]: 67.8 ng/mL; inhibition [31]: 41.4%; Activity (HCT-116 [32]): 37.51%; Activity [33]: Non-Toxic; bioavailability [34]: 27.5%; inhibition (HCT-116 [35]): Dose-Dependent Effect; Activity [36]: Non-Toxic
